{"source": "BindingDB's records for doi:10.1002/1098-2396(20010101)39:1", "about": "(Nih, 2001)", "key": {"[1]": {"target": "Norepinephrine transporter (Rattus norvegicus, UniProt Q9JIA2)"}, "[2]": {"target": "Sodium-dependent serotonin transporter (Rattus norvegicus, UniProt P31652)", "sequence (P31652 whole entry)": "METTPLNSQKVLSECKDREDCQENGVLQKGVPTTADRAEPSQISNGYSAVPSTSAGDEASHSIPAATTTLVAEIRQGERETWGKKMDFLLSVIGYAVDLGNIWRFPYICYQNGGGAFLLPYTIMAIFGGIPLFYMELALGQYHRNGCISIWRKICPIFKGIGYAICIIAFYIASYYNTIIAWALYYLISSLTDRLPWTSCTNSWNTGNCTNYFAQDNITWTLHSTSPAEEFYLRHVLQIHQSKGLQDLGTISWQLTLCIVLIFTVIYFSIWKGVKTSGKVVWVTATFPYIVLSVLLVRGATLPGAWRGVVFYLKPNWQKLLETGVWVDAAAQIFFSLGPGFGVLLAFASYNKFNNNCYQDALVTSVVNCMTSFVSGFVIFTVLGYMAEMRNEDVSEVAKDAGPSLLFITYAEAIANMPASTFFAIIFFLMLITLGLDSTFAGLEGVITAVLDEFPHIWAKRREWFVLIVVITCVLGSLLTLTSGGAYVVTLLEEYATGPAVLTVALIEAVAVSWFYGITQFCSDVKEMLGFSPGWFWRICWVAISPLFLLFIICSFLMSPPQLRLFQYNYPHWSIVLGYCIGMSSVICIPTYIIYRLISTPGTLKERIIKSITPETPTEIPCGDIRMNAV"}, "[3]": {"target": "Sodium-dependent dopamine transporter (Rattus norvegicus, UniProt P23977)", "sequence (P23977 whole entry)": "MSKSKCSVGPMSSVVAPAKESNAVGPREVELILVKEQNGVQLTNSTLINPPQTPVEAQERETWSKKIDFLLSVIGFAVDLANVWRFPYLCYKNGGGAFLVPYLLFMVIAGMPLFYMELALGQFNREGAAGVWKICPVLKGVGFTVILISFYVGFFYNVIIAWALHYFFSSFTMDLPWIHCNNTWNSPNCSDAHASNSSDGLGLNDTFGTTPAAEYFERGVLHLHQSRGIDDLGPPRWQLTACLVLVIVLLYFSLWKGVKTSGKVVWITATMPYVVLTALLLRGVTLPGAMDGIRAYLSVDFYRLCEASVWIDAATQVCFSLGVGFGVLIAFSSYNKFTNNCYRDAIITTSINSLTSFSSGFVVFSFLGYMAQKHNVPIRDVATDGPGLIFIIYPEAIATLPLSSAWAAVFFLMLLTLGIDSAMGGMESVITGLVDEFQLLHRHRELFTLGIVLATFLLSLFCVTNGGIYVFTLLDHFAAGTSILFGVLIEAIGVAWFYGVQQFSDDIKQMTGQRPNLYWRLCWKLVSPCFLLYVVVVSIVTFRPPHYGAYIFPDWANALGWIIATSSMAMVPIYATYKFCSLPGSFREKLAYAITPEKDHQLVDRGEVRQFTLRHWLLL"}}, "note": "Several values for one entry are separate records, joined by “and”; a condition that tells them apart may be missing. Equal entries are not always repeated."}
{"smiles": "NCCc1ccc(O)cc1", "values": [{"measurement": "Ki", "setting": "[1]", "value": 72.5, "unit": "nM"}, {"measurement": "Ki", "setting": "[2]", "value": 1560, "unit": "nM"}, {"measurement": "Ki", "setting": "[3]", "value": 106, "unit": "nM"}]}
{"smiles": "NCCc1ccc(O)c(O)c1", "values": [{"measurement": "Ki", "setting": "[1]", "value": 40.3, "unit": "nM"}, {"measurement": "Ki", "setting": "[2]", "value": 6490, "unit": "nM"}]}
{"smiles": "CC(C)(N)Cc1ccccc1", "note": "[2-methyl-1-phenylpropan-2-amine]", "values": [{"measurement": "Ki", "setting": "[1]", "value": 244, "unit": "nM"}, {"measurement": "Ki", "setting": "[2]", "value": "> 10000", "unit": "nM"}, {"measurement": "Ki", "setting": "[3]", "value": 1580, "unit": "nM"}]}
{"smiles": "COC(=O)C1C2CC[C@H](C[C@@H]1c1ccc(N)cc1)N2C", "note": "(stereo partly drawn) [(3S,8R)-3-(4-Amino-phenyl)-8-methyl-8-aza-bicyclo[3.2.1]octane-2-carboxylic acid methyl ester]", "values": [{"measurement": "Ki", "setting": "[3]", "value": 2.15, "unit": "nM"}]}
{"smiles": "CC(C)(N)Cc1ccc(Cl)cc1", "note": "[CAS_461-78-9]", "values": [{"measurement": "Ki", "setting": "[1]", "value": 451, "unit": "nM"}, {"measurement": "Ki", "setting": "[2]", "value": 338, "unit": "nM"}, {"measurement": "Ki", "setting": "[3]", "value": 3940, "unit": "nM"}]}
{"smiles": "NC1=NCC(c2ccccc2)O1", "note": "(stereo not drawn) [CAS_2207-50-3]", "values": [{"measurement": "Ki", "setting": "[1]", "value": 54.5, "unit": "nM"}, {"measurement": "Ki", "setting": "[2]", "value": 1240, "unit": "nM"}, {"measurement": "Ki", "setting": "[3]", "value": 216, "unit": "nM"}]}
{"smiles": "CN[C@@H](C)Cc1ccc2c(c1)OCO2", "note": "[DL-(3,4-Methylenedioxy)methamphetamine]", "values": [{"measurement": "Ki", "setting": "[1]", "value": 462, "unit": "nM"}, {"measurement": "Ki", "setting": "[2]", "value": 238, "unit": "nM"}, {"measurement": "Ki", "setting": "[3]", "value": 1570, "unit": "nM"}]}
{"smiles": "CN[C@@H](C)[C@H](O)c1ccccc1", "note": "[Ephedrine,(-)]", "values": [{"measurement": "Ki", "setting": "[1]", "value": 225, "unit": "nM"}, {"measurement": "Ki", "setting": "[2]", "value": "> 10000", "unit": "nM"}, {"measurement": "Ki", "setting": "[3]", "value": 4400, "unit": "nM"}]}
{"smiles": "c1ccc(CCCN2CCN(CCOC(c3ccccc3)c3ccccc3)CC2)cc1", "note": "[GBR-12935]", "values": [{"measurement": "Ki", "setting": "[1]", "value": 277, "unit": "nM"}]}
{"smiles": "CN[C@@H](C)Cc1ccccc1", "note": "[METHAMPHETAMINE (+)]", "values": [{"measurement": "Ki", "setting": "[1]", "value": "48 nM and 234 nM"}]}
{"smiles": "O[C@]1(c2ccc(Cl)cc2)c2ccccc2C2=NCCN21", "note": "[Mazanor]", "values": [{"measurement": "Ki", "setting": "[1]", "value": 2.88, "unit": "nM"}, {"measurement": "Ki", "setting": "[2]", "value": 272, "unit": "nM"}, {"measurement": "Ki", "setting": "[3]", "value": 25.9, "unit": "nM"}]}
{"smiles": "CCNC(C)Cc1cccc(C(F)(F)F)c1", "note": "(stereo not drawn) [NSC_3337]", "values": [{"measurement": "Ki", "setting": "[3]", "value": "> 10000", "unit": "nM"}]}
{"smiles": "NCC(O)c1ccc(O)c(O)c1", "note": "(stereo not drawn) [Noradrenaline,(+)]", "values": [{"measurement": "Ki", "setting": "[1]", "value": 63.9, "unit": "nM"}, {"measurement": "Ki", "setting": "[2]", "value": "> 10000", "unit": "nM"}, {"measurement": "Ki", "setting": "[3]", "value": 357, "unit": "nM"}]}
{"smiles": "COC(=O)[C@H]1[C@@H](c2ccc(I)cc2)C[C@@H]2CC[C@H]1N2C", "note": "[RTI 55, (exo,exo)-isomer, Iodine (125) labeled]", "values": [{"measurement": "Ki", "setting": "[1]", "value": 5.89, "unit": "nM"}, {"measurement": "Ki", "setting": "[2]", "value": 1, "unit": "nM"}, {"measurement": "Ki", "setting": "[3]", "value": 0.83, "unit": "nM"}]}
{"smiles": "CN1[C@H]2CC[C@@H]1[C@@H](C(=O)N1CCCC1)[C@@H](c1ccc(I)cc1)C2", "note": "[RTI-229]", "values": [{"measurement": "Ki", "setting": "[1]", "value": 19.5, "unit": "nM"}, {"measurement": "Ki", "setting": "[2]", "value": 362, "unit": "nM"}]}
{"smiles": "NCCc1c[nH]c2ccc(O)cc12", "note": "[[3H]-5-HT]", "values": [{"measurement": "Ki", "setting": "[1]", "value": 3010, "unit": "nM"}, {"measurement": "Ki", "setting": "[3]", "value": 2700, "unit": "nM"}]}
{"smiles": "C[C@H](N)Cc1ccccc1", "note": "[beta-aminopropylbenzene]", "values": [{"measurement": "Ki", "setting": "[1]", "value": 38.9, "unit": "nM"}]}
